Test results: ChEMBL document CHEMBL4715829, “Heterodimeric Rifampicin-Tobramycin conjugates break intrinsic resistance of Pseudomonas aeruginosa to doxycycline and chloramphenicol in vitro and in a Galleria mellonella in vivo model” (Eur J Med Chem, 2019)

Legend:
Pseudomonas aeruginosa [1] = test: Antibacterial activity against Pseudomonas aeruginosa 262-101856 assessed as reduction in bacterial growth incubated for 18 hrs by broth microdilution assay; assay type: functional
Pseudomonas aeruginosa [2] = test: Antibacterial activity against Pseudomonas aeruginosa 114228 assessed as reduction in bacterial growth incubated for 18 hrs by broth microdilution assay; assay type: functional
Pseudomonas aeruginosa [3] = test: Antibacterial activity against Pseudomonas aeruginosa 101243 assessed as fractional inhibitory concentration index in presence of chloramphenicol incubated for 18 hrs by broth microdilution assay; assay type: functional
[4] = Cytotoxicity against human HEK293 cells assessed as cell viability at 50 uM incubated for 48 hrs by prestoblue assay; assay type: cell-based; conditions: read-out: Activity
[5] = system: Stenotrophomonas maltophilia; test: Antibacterial activity against Stenotrophomonas maltophilia CAN-ICU 62584 assessed as reduction in bacterial growth incubated for 18 hrs by broth microdilution assay; assay type: functional
Klebsiella pneumoniae = test: Antibacterial activity against Klebsiella pneumoniae ATCC 13883 assessed as reduction in bacterial growth incubated for 18 hrs by broth microdilution assay; assay type: functional
Pseudomonas aeruginosa [6] = test: Antibacterial activity against Pseudomonas aeruginosa PAO1 assessed as fractional inhibitory concentration index in presence of Minocycline incubated for 18 hrs by broth microdilution assay based checkerboard assay; assay type: functional
Pseudomonas aeruginosa [7] = test: Antibacterial activity against Pseudomonas aeruginosa PAO1 assessed as fractional inhibitory concentration index in presence of Clindamycin incubated for 18 hrs by broth microdilution assay based checkerboard assay; assay type: functional
Pseudomonas aeruginosa [8] = test: Antibacterial activity against Pseudomonas aeruginosa PAO1 assessed as reduction in bacterial growth by measuring moxifloxacin MIC at <=10 uM in presence of moxifloxacin incubated for 18 hrs by broth microdilution assay based checkerboard assay (reference value: 1 microg/ml); assay type: functional; conditions: dose microM <=10
Pseudomonas aeruginosa [9] = test: Antibacterial activity against Pseudomonas aeruginosa PAO1 assessed as fractional inhibitory concentration index in presence of Pleuromutilin incubated for 18 hrs by broth microdilution assay based checkerboard assay; assay type: functional
[10] = Cytotoxicity against human HepG2 cells assessed as cell viability at <10 uM incubated for 48 hrs prestoblue assay; assay type: cell-based; conditions: read-out: Activity
Pseudomonas aeruginosa [11] = test: Antibacterial activity against Pseudomonas aeruginosa PAO1 assessed as fractional inhibitory concentration index in presence of Tigecycline incubated for 18 hrs by broth microdilution assay based checkerboard assay; assay type: functional
Pseudomonas aeruginosa [12] = test: Antibacterial activity against Pseudomonas aeruginosa PAO1 assessed as fractional inhibitory concentration index in presence of Ceftazidime incubated for 18 hrs by broth microdilution assay based checkerboard assay; assay type: functional
Escherichia coli = test: Antibacterial activity against Escherichia coli ATCC 25922 assessed as reduction in bacterial growth incubated for 18 hrs by broth microdilution assay; assay type: functional
[13] = system: Staphylococcus epidermidis; test: Antibacterial activity against methicillin-resistance Staphylococcus epidermidis CAN-ICU 61589 (CAZ>32) assessed as reduction in bacterial growth incubated for 18 hrs by broth microdilution assay; assay type: functional
Pseudomonas aeruginosa [14] = test: Antibacterial activity against Pseudomonas aeruginosa PAO1 assessed as reduction in bacterial growth by measuring meropenem MIC at <=10 uM in presence of meropenem incubated for 18 hrs by broth microdilution assay based checkerboard assay (reference value: 1 microg/ml); assay type: functional; conditions: dose microM <=10
Staphylococcus aureus [15] = test: Antibacterial activity against methicillin-resistance Staphylococcus aureus ATCC 33592 assessed as reduction in bacterial growth incubated for 18 hrs by broth microdilution assay; assay type: functional
[16] = system: Staphylococcus epidermidis; test: Antibacterial activity against methicillin-susceptible Staphylococcus epidermidis CANWARD 81388 assessed as reduction in bacterial growth incubated for 18 hrs by broth microdilution assay; assay type: functional
Pseudomonas aeruginosa [17] = test: Antibacterial activity against wild type Pseudomonas aeruginosa PAO1 assessed as reduction in bacterial growth incubated for 18 hrs by broth microdilution assay; assay type: functional
Pseudomonas aeruginosa [18] = test: Antibacterial activity against Pseudomonas aeruginosa PAO1 assessed as reduction in bacterial growth by measuring tigecycline MIC at <=10 uM in presence of tigecycline incubated for 18 hrs by broth microdilution assay based checkerboard assay (reference value: 4 microg/ml); assay type: functional; conditions: dose microM <=10
Pseudomonas aeruginosa [19] = test: Antibacterial activity against Pseudomonas aeruginosa PAO1 assessed as reduction in bacterial growth by measuring linezolid MIC at <=10 uM in presence of linezolid incubated for 18 hrs by broth microdilution assay based checkerboard assay (reference value: 1024 microg/ml); assay type: functional; conditions: dose microM <=10
Staphylococcus aureus [20] = test: Antibacterial activity against Staphylococcus aureus ATCC 29213 assessed as reduction in bacterial growth incubated for 18 hrs by broth microdilution assay; assay type: functional
Pseudomonas aeruginosa [21] = test: Antibacterial activity against Pseudomonas aeruginosa 262-101856 assessed as fractional inhibitory concentration index in presence of doxycycline incubated for 18 hrs by broth microdilution assay; assay type: functional
Pseudomonas aeruginosa [22] = test: Antibacterial activity against Pseudomonas aeruginosa 91433 assessed as reduction in bacterial growth incubated for 18 hrs by broth microdilution assay; assay type: functional
Pseudomonas aeruginosa [23] = test: Antibacterial activity against Pseudomonas aeruginosa 91433 assessed as fractional inhibitory concentration index in presence of doxycycline incubated for 18 hrs by broth microdilution assay; assay type: functional
Pseudomonas aeruginosa [24] = test: Antibacterial activity against Pseudomonas aeruginosa 260-97103 assessed as fractional inhibitory concentration index in presence of doxycycline incubated for 18 hrs by broth microdilution assay; assay type: functional
Pseudomonas aeruginosa [25] = test: Antibacterial activity against Pseudomonas aeruginosa 100036 assessed as reduction in bacterial growth incubated for 18 hrs by broth microdilution assay; assay type: functional
Pseudomonas aeruginosa [26] = test: Antibacterial activity against Pseudomonas aeruginosa PAO1 assessed as reduction in bacterial growth by measuring tobramycin MIC at <=10 uM in presence of tobramycin incubated for 18 hrs by broth microdilution assay based checkerboard assay (reference value: 1 microg/ml); assay type: functional; conditions: dose microM <=10
Pseudomonas aeruginosa [27] = test: Antibacterial activity against Pseudomonas aeruginosa PAO1 assessed as fractional inhibitory concentration index in presence of Chloramphenicol incubated for 18 hrs by broth microdilution assay based checkerboard assay; assay type: functional
Pseudomonas aeruginosa [28] = test: Antibacterial activity against Pseudomonas aeruginosa PAO1 assessed as reduction in bacterial growth by measuring colistin MIC at <=10 uM in presence of colistin incubated for 18 hrs by broth microdilution assay based checkerboard assay (reference value: 1 microg/ml); assay type: functional; conditions: dose microM <=10
Pseudomonas aeruginosa [29] = test: Antibacterial activity against Pseudomonas aeruginosa PAO1 assessed as fractional inhibitory concentration index in presence of Meropenem incubated for 18 hrs by broth microdilution assay based checkerboard assay; assay type: functional
Pseudomonas aeruginosa [30] = test: Antibacterial activity against Pseudomonas aeruginosa PAO1 assessed as reduction in bacterial growth by measuring novobiocin MIC at <=10 uM in presence of novobiocin incubated for 18 hrs by broth microdilution assay based checkerboard assay (reference value: 512 microg/ml); assay type: functional; conditions: dose microM <=10
Pseudomonas aeruginosa [31] = test: Antibacterial activity against Pseudomonas aeruginosa PAO1 assessed as fractional inhibitory concentration index in presence of Doxycycline incubated for 18 hrs by broth microdilution assay based checkerboard assay; assay type: functional
[32] = Cytotoxicity against human HepG2 cells assessed as cell viability at 50 uM incubated for 48 hrs by prestoblue assay; assay type: cell-based; conditions: read-out: Activity
Pseudomonas aeruginosa [33] = test: Antibacterial activity against Pseudomonas aeruginosa 91433 assessed as fractional inhibitory concentration index in presence of chloramphenicol incubated for 18 hrs by broth microdilution assay; assay type: functional
Pseudomonas aeruginosa [34] = test: Antibacterial activity against Pseudomonas aeruginosa 260-97103 assessed as fractional inhibitory concentration index in presence of chloramphenicol incubated for 18 hrs by broth microdilution assay; assay type: functional
Enterococcus faecium = test: Antibacterial activity against Enterococcus faecium ATCC 27270 assessed as reduction in bacterial growth incubated for 18 hrs by broth microdilution assay; assay type: functional
Pseudomonas aeruginosa [35] = test: Antibacterial activity against Pseudomonas aeruginosa PAO1 assessed as fractional inhibitory concentration index in presence of Rifampicin incubated for 18 hrs by broth microdilution assay based checkerboard assay; assay type: functional

CO[C@H]1/C=C/O[C@@]2(C)Oc3c(C)c(O)c4c(O)c(c(/C=N/N5CCN(Cc6cn(CCCCCCCCCCCCO[C@@H]7[C@@H](O[C@H]8O[C@H](CO)[C@@H](O)[C@H](N)[C@H]8O)[C@H](N)C[C@H](N)[C@H]7O[C@H]7O[C@H](CN)[C@@H](O)C[C@H]7N)nn6)CC5)c(O)c4c3C2=O)NC(=O)/C(C)=C\C=C\[C@H](C)[C@H](O)[C@@H](C)[C@@H](O)[C@@H](C)[C@H](OC(C)=O)[C@@H]1C.O=C(O)C(F)(F)F.O=C(O)C(F)(F)F.O=C(O)C(F)(F)F.O=C(O)C(F)(F)F.O=C(O)C(F)(F)F
MIC (Pseudomonas aeruginosa [1]): > 256 µg/mL | MIC (Pseudomonas aeruginosa [2]): > 128 µg/mL | fractional inhibitory concentration index (FICI) (Pseudomonas aeruginosa [3]): 0.125 | viability at 48 h, 50 µM [4]: > 70% | MIC [5]: > 32 µg/mL | MIC (Klebsiella pneumoniae): > 32 µg/mL | fractional inhibitory concentration index (FICI) (Pseudomonas aeruginosa [6]): 0.28 | fractional inhibitory concentration index (FICI) (Pseudomonas aeruginosa [7]): 0.26 | MIC (Pseudomonas aeruginosa [8]): 1 µg/mL | fractional inhibitory concentration index (FICI) (Pseudomonas aeruginosa [9]): 0.53 | viability at 48 h [10]: > 90% | fractional inhibitory concentration index (FICI) (Pseudomonas aeruginosa [11]): 0.51 | fractional inhibitory concentration index (FICI) (Pseudomonas aeruginosa [12]): 1.03 | MIC (Escherichia coli): 16 µg/mL | MIC [13]: 8 µg/mL | MIC (Pseudomonas aeruginosa [14]): 1 µg/mL | MIC (Staphylococcus aureus [15]): > 32 µg/mL | MIC [16]: 4 µg/mL | MIC (Pseudomonas aeruginosa [17]): 512 µg/mL | MIC (Pseudomonas aeruginosa [18]): 2 µg/mL | MIC (Pseudomonas aeruginosa [19]): 256 µg/mL | MIC (Staphylococcus aureus [20]): 16 µg/mL | fractional inhibitory concentration index (FICI) (Pseudomonas aeruginosa [21]): <0.07 | MIC (Pseudomonas aeruginosa [22]): > 128 µg/mL | fractional inhibitory concentration index (FICI) (Pseudomonas aeruginosa [23]): 0.133 | fractional inhibitory concentration index (FICI) (Pseudomonas aeruginosa [24]): <0.133 | MIC (Pseudomonas aeruginosa [25]): 256 µg/mL | MIC (Pseudomonas aeruginosa [26]): 1 µg/mL | fractional inhibitory concentration index (FICI) (Pseudomonas aeruginosa [27]): 0.09 | MIC (Pseudomonas aeruginosa [28]): 0.25 µg/mL | fractional inhibitory concentration index (FICI) (Pseudomonas aeruginosa [29]): 1.03 | MIC (Pseudomonas aeruginosa [30]): 128 µg/mL | fractional inhibitory concentration index (FICI) (Pseudomonas aeruginosa [31]): 0.09 | viability at 48 h, 50 µM [32]: > 70% | fractional inhibitory concentration index (FICI) (Pseudomonas aeruginosa [33]): 0.25 | fractional inhibitory concentration index (FICI) (Pseudomonas aeruginosa [34]): <0.129 | MIC (Enterococcus faecium): > 32 µg/mL | fractional inhibitory concentration index (FICI) (Pseudomonas aeruginosa [35]): 0.15

CO[C@H]1/C=C/O[C@@]2(C)Oc3c(C)c(O)c4c(O)c(c(/C=N/N5CCN(Cc6cn(CCCCCCO[C@@H]7[C@@H](O[C@H]8O[C@H](CO)[C@@H](O)[C@H](N)[C@H]8O)[C@H](N)C[C@H](N)[C@H]7O[C@H]7O[C@H](CN)[C@@H](O)C[C@H]7N)nn6)CC5)c(O)c4c3C2=O)NC(=O)/C(C)=C\C=C\[C@H](C)[C@H](O)[C@@H](C)[C@@H](O)[C@@H](C)[C@H](OC(C)=O)[C@@H]1C.Cl.Cl.Cl.Cl.Cl
MIC (Pseudomonas aeruginosa [1]): > 256 µg/mL | MIC (Pseudomonas aeruginosa [2]): > 128 µg/mL | fractional inhibitory concentration index (FICI) (Pseudomonas aeruginosa [3]): 0.187 | viability at 48 h, 50 µM [4]: > 70% | MIC [5]: > 32 µg/mL | MIC (Klebsiella pneumoniae): > 32 µg/mL | fractional inhibitory concentration index (FICI) (Pseudomonas aeruginosa [6]): 0.28 | fractional inhibitory concentration index (FICI) (Pseudomonas aeruginosa [7]): 0.28 | MIC (Pseudomonas aeruginosa [8]): 0.5 µg/mL | fractional inhibitory concentration index (FICI) (Pseudomonas aeruginosa [9]): 0.28 | viability at 48 h [10]: > 90% | fractional inhibitory concentration index (FICI) (Pseudomonas aeruginosa [11]): 0.51 | fractional inhibitory concentration index (FICI) (Pseudomonas aeruginosa [12]): 1.03 | MIC (Escherichia coli): ≥ 32 µg/mL | MIC [13]: 4 µg/mL | MIC (Pseudomonas aeruginosa [14]): 1 µg/mL | MIC (Staphylococcus aureus [15]): > 32 µg/mL | MIC [16]: 4 µg/mL | MIC (Pseudomonas aeruginosa [17]): 512 µg/mL | MIC (Pseudomonas aeruginosa [18]): 2 µg/mL | MIC (Pseudomonas aeruginosa [19]): 128 µg/mL | MIC (Staphylococcus aureus [20]): 16 µg/mL | fractional inhibitory concentration index (FICI) (Pseudomonas aeruginosa [21]): <0.07 | MIC (Pseudomonas aeruginosa [22]): > 128 µg/mL | fractional inhibitory concentration index (FICI) (Pseudomonas aeruginosa [23]): 0.25 | fractional inhibitory concentration index (FICI) (Pseudomonas aeruginosa [24]): <0.133 | MIC (Pseudomonas aeruginosa [25]): 256 µg/mL | MIC (Pseudomonas aeruginosa [26]): 1 µg/mL | fractional inhibitory concentration index (FICI) (Pseudomonas aeruginosa [27]): 0.06 | MIC (Pseudomonas aeruginosa [28]): 0.5 µg/mL | fractional inhibitory concentration index (FICI) (Pseudomonas aeruginosa [29]): 1.03 | MIC (Pseudomonas aeruginosa [30]): 128 µg/mL | fractional inhibitory concentration index (FICI) (Pseudomonas aeruginosa [31]): 0.06 | viability at 48 h, 50 µM [32]: > 70% | fractional inhibitory concentration index (FICI) (Pseudomonas aeruginosa [33]): 0.375 | fractional inhibitory concentration index (FICI) (Pseudomonas aeruginosa [34]): <0.141 | MIC (Enterococcus faecium): > 32 µg/mL | fractional inhibitory concentration index (FICI) (Pseudomonas aeruginosa [35]): 0.28
